# Results: patent publication US20110300129A1, “SYSTEMS AND METHODS FOR ENHANCING VACCINE EFFICACY” (UNIVERSITY OF ROCHESTER, priority 2008, published 2011)
# Legend:
# [1] = system: peripheral blood B cells; conditions: Morikawa et al. 2005; cited from earlier work
# [2] = system: purified human B cells; test: B cell proliferation, CFSE cell division by flow cytometry; type: cell-based; conditions: CpG-activated B cells, 5 days; for cell division compared to vehicle control: Rosiglitazone 0.5 μM, 15d-PGJ2 0.2 μM
# Experimental: Proliferation: For cell division, a CellTrace™ CFSE Cell Proliferation Kit (Invitrogen, Carlsbad, Calif.) was used according to the manufacturer's protocol. Briefly, cells were labeled with 0.5 μM CFSE (carboxyfluorescein diacetate succinimidyl ester) for 15 minutes at 37° C., followed by two washes with 1×PBS, and then resuspended in RPMI culture media containing 10% FBS. Cells were then plated at a density of 1×10^5 cells/well in a 96-round bottom plate. Five days later, cells were acquired using a BD Biosciences FACS Calibur flow cytometer and analyzed using FlowJo software (Tree Star, Inc. Ashland, Oreg.).
# Five days after activation, cells were analyzed by flow cytometry. […] FIG. 2B illustrates the percent of cell division for three different B cell donors.
# [3] = system: purified human B lymphocytes; test: Antibody production, IgM and IgG ELISA of B cell supernatants; type: cell-based; conditions: 6 days
# Experimental: Antibody Production: Purified human B lymphocytes (5×10^5 cells/ml) were cultured in 96-well round-bottom microtiter plates. […] Pilot experiments were performed to optimize the doses of PPARγ and RXR ligands. […] Supernatants were harvested and the concentrations of IgM and IgG were analyzed using human-specific ELISAs (Bethyl Laboratories).
# [4] = system: peripheral blood B cells; test: Plasma cell differentiation, CD38/CD27 surface labeling by flow cytometry; type: cell-based, human; conditions: for percentage of CD38highCD27high B cells (plasma cells): Rosiglitazone 0.5 μM, 15d-PGJ2 0.2 μM
# Experimental: Intracellular and Surface Labeling: B cells were incubated with mouse anti-human CD19-APC (BD Biosciences), anti-human CD38-PE (BD Biosciences) and/or anti-human CD27-APC (BD Biosciences) in cold PBS with sodium azide (0.02%) and BSA (0.3%) for 20 min at 20° C. COX-2 intracellular staining was performed as described previously (Padilla et al., “Human B Lymphocytes and B Lymphomas Express PPAR-γ and Are Killed by PPAR-γ Agonists,” Clin Immunol 103:22-33 (2002), which is hereby incorporated by reference in its entirety). All samples were acquired on a BD Biosciences FACS Calibur flow cytometer and analyzed using FlowJo software (Tree Star, Inc. Ashland, Oreg.).
# Peripheral-blood B lymphocytes include both naive and memory B cell populations. These two B cell subsets can be distinguished based on CD27 expression, which is a marker of memory B cells (Agematsu et al., “CD27: A Memory B-cell Marker,” Immunol Today 21:204-206 (2000), each of which is hereby incorporated by reference in its entirety).
# [5] = system: human B cells; test: B cell viability (7-AAD incorporation, cell size, 3H-thymidine incorporation); type: cell-based; conditions: Rosiglitazone 0.5 μM, 15d-PGJ2 0.2 μM; pilot experiments
# [6] = molecular target: T1, PPARγ (Homo sapiens, UniProt P37231); test: PPARγ gene reporter analysis (PPRE-luciferase) in transfected B cells; type: cell-based; conditions: CpG-activated B cells, 24 h treatment; Rosiglitazone 0.5 μM, 15d-PGJ2 0.2 μM
# T1 construct: normal B cells were transfected with a PPARγ luciferase reporter construct; endogenous in cells
# T1 sequence (P37231 1-505): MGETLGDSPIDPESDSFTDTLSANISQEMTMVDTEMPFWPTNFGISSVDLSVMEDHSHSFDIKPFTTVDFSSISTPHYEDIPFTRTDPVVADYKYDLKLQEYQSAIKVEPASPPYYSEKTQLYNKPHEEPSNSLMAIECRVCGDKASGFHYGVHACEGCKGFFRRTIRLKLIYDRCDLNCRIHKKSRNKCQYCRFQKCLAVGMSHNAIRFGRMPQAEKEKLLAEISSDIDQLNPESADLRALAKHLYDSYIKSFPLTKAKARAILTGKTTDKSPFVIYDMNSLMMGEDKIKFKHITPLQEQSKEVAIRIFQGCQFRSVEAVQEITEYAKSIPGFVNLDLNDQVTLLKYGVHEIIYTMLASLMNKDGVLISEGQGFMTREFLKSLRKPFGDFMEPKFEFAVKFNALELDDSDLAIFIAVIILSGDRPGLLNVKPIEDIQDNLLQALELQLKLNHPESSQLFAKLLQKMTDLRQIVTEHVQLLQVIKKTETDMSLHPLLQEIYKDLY
# Experimental: Twenty-four hours after treatments, luciferase activity was assayed using the Promega Luciferase Assay System (Madison, Wis.). Relative light units (RLU) were determined with a Lumicount Microplate Luminometer (Packard Instrument Co., Meriden, Conn., USA). Relative light units (RLU) were normalized to transfection efficiency that was monitored by cotransfection of GFP expression vector.
# To test whether the PPARγ ligand concentrations used here activated PPARγ, normal B cells were transfected with a PPARγ luciferase reporter construct.
# [7] = system: Cox-2 expression in B cells; test: Cox-2 intracellular staining of CD19+ B cells, flow cytometry; type: cell-based, human; conditions: CpG 1 μg/ml; Rosiglitazone 0.5 μM, 15d-PGJ2 0.2 μM; 3% untreated
# Experimental: Intracellular and Surface Labeling: B cells were incubated with mouse anti-human CD19-APC (BD Biosciences), anti-human CD38-PE (BD Biosciences) and/or anti-human CD27-APC (BD Biosciences) in cold PBS with sodium azide (0.02%) and BSA (0.3%) for 20 min at 20° C. […] All samples were acquired on a BD Biosciences FACS Calibur flow cytometer and analyzed using FlowJo software (Tree Star, Inc. Ashland, Oreg.).
# Therefore, the levels of Cox-2 expression were evaluated following PPARγ ligand treatment.
# [8] = system: BLIMP-1 expression in B cells; test: BLIMP-1 expression in B cells, Western blot densitometry; type: cell-based, human; conditions: for BLIMP-1 induction over CpG-treated cells (densitometry): CpG 1 μg/ml plus ligand, 72 hrs
# Experimental: Western Blots: Whole cell extracts were collected using ELB buffer (50 mM HEPES (pH 7), 250 mM NaCl, 0.1% Nonidet P-40, 5 mM EDTA, 10 mM NaF, 0.1 mM Na3VO4, 50 μM ZnCl2, supplemented with 0.1 mM PMSF, 1 mM DTT, and a mixture of protease and phosphatase inhibitors) and total protein was quantified using bicinchoninic acid protein assay (BCA assay kit) (Pierce, Rockford, Ill.). Twenty-five micrograms of protein was electrophoresed on 8-16% Precise™ protein gels (Pierce, Rockford, Ill.) and transferred to polyvinylidene fluoride (PVDF) membrane (Millipore, Billerica, Mass.). The membranes were analyzed for immunoreactivity with the indicated primary antibody, washed and then incubated with an appropriate horseradish peroxidase-conjugated secondary antibody. The membranes were visualized by chemiluminescence using an ECL kit (Pierce, Rockford, Ill.).
# Lastly, BLIMP-1 expression was evaluated. BLIMP-1 is a transcription factor important in B cell differentiation (Shaffer et al., “Blimp-1 Orchestrates Plasma Cell Differentiation by Extinguishing the Mature B Cell Gene Expression Program,” Immunity 17:51-62 (2002), which is hereby incorporated by reference in its entirety). […] When B cells were treated with a combination of CpG and PPARγ ligands, there was a further increase in BLIMP-1 expression.
# [9] = CpG 1 μg/ml, 5 days, 9-cis-RA 100 nM
smiles,measurement,setting,value
"CC1=C(/C=C/C(C)=C/C=C/C(C)=C/C(=O)O)C(C)(C)CCC1 [ATRA, all-trans-retinoic acid]",CD38 expression,[1],induces CD38 expression
same,antibody production,[1],increases antibody production
"CC1=C(/C=C/C(C)=C\C=C\C(C)=C\C(=O)O)C(C)(C)CCC1 [9-cis-RA, 9-cis-retinoic acid]",percentage of dividing cells,"[2]; ligand alone, 9-cis-RA 100 nM",increased the percentage of dividing cells
same,IgG production over vehicle control,[3]; CpG-activated cells,significantly induced
same,IgM production over vehicle control,[3]; CpG-activated cells,significantly induced
same,"CD38highCD27high cells, fold over vehicle","[4]; CpG 1 μg/ml, 5 days",~1.7 fold
same,"CD38highCD27low cells, fold vs. CpG plus vehicle","[4]; CpG 1 μg/ml, 5 days",~3.5 fold
same,percentage of CD38-expressing naive B cells (CD38highCD27low),[4]; [9],30.2±5.5%
same,percentage of CD38highCD27high B cells (plasma cells),[4]; [9],10.3±1.9%
"CCCCCC=CC=C1C(=O)C=C[C@@H]1CC=CCCCC(=O)O [15d-PGJ2, 15-deoxy-Δ^12,14 Prostaglandin J2]",cell division compared to vehicle control,[2],increased cell division
same,cell viability,[5],did not adversely affect cell viability
same,luciferase activity (PPRE reporter),[6],increased luciferase activity
same,"CD38highCD27high cells, fold over vehicle","[4]; CpG 1 μg/ml, 5 days",~2 fold
same,percentage of CD38highCD27high B cells (plasma cells),[4]; [9],12.5±1.4%
same,percentage of B cells which express Cox-2,[7],43%
same,BLIMP-1 induction over CpG-treated cells (densitometry),[8],~9 fold
CS(=O)(=O)c1ccc(-n2nc(C(F)(F)F)cc2-c2ccc(F)cc2)cc1 [SC-58125],IgG production of CpG-stimulated B cells,[3]; addition of SC-58125 10 μM,significantly reduced
same,IgM production of CpG-stimulated B cells,[3]; addition of SC-58125 10 μM,significantly reduced
same,increased antibody production upon PPARγ ligand treatment,"[3]; addition of SC-58125 10 μM, CpG",significantly reduced
O=C(Nc1ccccc1)c1cc([N+](=O)[O-])ccc1Cl [GW9662],effects of PPARγ ligands on IgG production,"[3]; with GW9662 500 nM, CpG",abolished
same,PPARγ ligand-induced CD38 expression in memory B cells,"[4]; with GW9662 500 nM, CpG",attenuated
same,expression of BLIMP-1 compared to CpG alone,[8]; CpG and GW9662 500 nM,decrease
same,increase in BLIMP-1 by Rosiglitazone and 15d-PGJ2,"[8]; CpG-activated B cells, with GW9662 500 nM",dramatically attenuated
"CN(CCOc1ccc(CC2SC(=O)NC2=O)cc1)c1ccccn1 (stereo not shown) [Rosiglitazone, 5-[4-[2-[N-methyl-N-(2-pyridyl)amino]ethoxy]benzyl]thiazolidine-2,4-dione]",cell division compared to vehicle control,[2],increased cell division
same,cell viability,[5],did not adversely affect cell viability
same,percentage of CD38highCD27high B cells (plasma cells),[4]; [9],10.7±1.6%
same,percentage of B cells which express Cox-2,[7],36%
same,BLIMP-1 induction over CpG-treated cells (densitometry),[8],~6 fold
